The source of these data is patent US11925618B2, “Pharmaceutical combination for the treatment of cancer” (Piramal Enterprises Limited, priority 2014, dated 2024).

For orientation: EC50 means the concentration at which the effect is half-maximal.

Common to all, as to format: cell-based
For assay [1], the system named is MDA-MB-231 cell lines. The experiment in a line: CGI (cell growth inhibition, propidium iodide) assay in MDA-MB-231 cell lines. The settings on record: determined at 72 h. The protocol:
(§1) The media was removed from the flask containing cells and 2-3 mL of sterile 1×DPBS was added to the flask. The DPBS was then removed from the flask and 2 mL of trypsin was added to the flask. The flask was kept in the incubator for a few seconds. The cells were then checked whether dislodged and if dislodged, 2 mL of serum was added to the flask. To the flask was then added 5-6 mL of media and swirled. The media was collected from the flask and centrifuged at 600 rpm for 10 min.
(§2) The supernatant solution was decanted and the pellet was re-suspended in 10 mL of media. To a 1.7 mL MCT; 50 μL of tryphan blue, 40 μL of media and 10 μL of cell suspension were added. The solution was then vortexed and 10 μL of this solution was loaded on a hemocytometer. The cells were counted in hemocytometer chambers and further calculated to get a count of ≥3000 cells/well/200 μL.
(§3) The cell stock was prepared using respective media and FBS, and 200 μL of the cell stock was added to each well (except media control wells) of white delta treated 96 well plate using a multi-channel pipette. To the media control wells, 200 μL of media was added. The plates were then incubated at 37° C. for 12-16 h.
(§4) The drug (the therapeutic agent) i.e. the CDK inhibitor and the antioxidant enzyme inhibitor were separately diluted to 10 folds using DMSO. The media of the plates was changed before the addition of drug to the plates and these plates were then placed in the incubator. 1 μL of CDK inhibitor and antioxidant enzyme inhibitor was added simultaneously to the respective wells and placed on the plate shaker for 15-30 mins. The plates were then placed back in incubator for 72 h or the time of incubation as decided.
(§5) 200 μL of media from each well was gently aspirated and then added 100 μL of 1×DPBS at room temperature to each well. The working stock of PI (stock 1 mg/mL) was prepared using 140 μL of PI and 20 mL of 1×DPBS for one plate. Then 1×DPBS was removed from the wells and 200 μL of PI working stock was added to each well. These plates were kept in dark for 5-10 min at room temperature on a shaker, after which the plates were stored at −80° C. until reading of the plate.
(§6) The plate was read in Spectramax fluorescence excitation maximum is 535 nm and the emission maximum is 617 nm.
Cell lines: The cell lines of MDA-MB-231 for triple negative breast cancer (TNBC) obtained from ATCC (American Tissue type Culture Collection), USA were used in this study.
The analysis of combination index and cell growth inhibition was carried out using CGI assay method. […]
The combination studies of CDK inhibitor with each of the TrxR inhibitors, auranofin, ebselen and ATO was carried out at 12, 24, 48 and 72 h and the time point for which optimum synergy was obtained was determined. […]

Assay [2] deals with FaDu cell lines. The experiment in a line: CGI (cell growth inhibition, propidium iodide) assay in FaDu cell lines. The protocol: as §1, §2, §3, §4, §5, §6
Cell lines: The cell lines of FaDu for head and neck squamous cell carcinomas (HNSCC) obtained from ATCC (American Tissue type Culture Collection), USA were used in this study.
The analysis of combination index (CI) and cell growth inhibition was carried out using CGI assay method. […]
The combination studies of CDK inhibitor with TrxR inhibitor, auranofin was carried out at 12, 24, 48 and 72 h and the time point for which optimum synergy was obtained was determined. […]

Assay [3] relates to Thioredoxin Reductase (TrxR). The experiment in a line: TrxR activity assay (DTNB reduction) in FaDu cell lysates. To be noted: FaDu cells, DTNB reduction with or without ATM. The protocol:
• (i) Cell lines: The cell lines of FaDu for head and neck squamous cell carcinomas (HNSCC) obtained from ATCC (American Tissue type Culture Collection), USA. • (ii) DTNB: Dithio nitro benzoic acid • (iii) ATM: Aurothiomalate
TrxR assay was conducted in six-well plates with 1M cells per well. The cells were treated with various concentrations of auranofin or voruciclib and in combination of both. The TrxR activity was measured in cell lysates using DTNB (Dithio nitro benzoic acid). The DINS was reduced to TNB (Thio nito benzoic acid) with or without a specific TrxR inhibitor, Aurothiomalate (ATM). The TrxR activity was calculated based on the difference in slope obtained from linear kinetic of DTNB reduction with or without ATM treatment.
The effect of auranofin and voruciclib combination on TrxR activity assay in FaDu cells are depicted in FIG. 16. The data is represented as mean±SEM (N=2) of % TrxR activity (Y-axis) and various concentration (μM) of Auranofin or voruciclib or combination of both (X-axis); PC—Positive control, C—Vehicle control.

The test system of assay [4] is ROS production in FaDu cells. The experiment in a line: Cellular ROS detection assay using DCFDA. To be noted: single agent. The protocol:
as §1
The supernatant solution was decanted and the pellet was re-suspended in 10 mL of media. To a 1.7 mL MCT; 50 μL of tryphan blue, 40 μL of media and 10 μL of cell suspension were added. The solution was then vortexed and 10 μL of this solution was loaded on a hemocytometer. The cells were counted in hemocytometer chambers and further calculated to get a count of ≥25000 cells/well/200 μL. […]
The plate was read in Spectamax fluoroscence excitation maximum is 485 nm and the emission maximum is 535 nm. […]
The […] cells were treated with various concentrations (μM) of auranofin or voruciclib alone or in combination. […] The treated FaDu/MDAMB-431 cells were analyzed on a fluorescent plate reader vis-a-vis the cells of positive control which were treated with 50 μM tert-butyl hydrogen peroxide (TBHP). […]

Like-named read-outs stand apart in the source and are kept apart here.

In the case of Arsenic trioxide [ATO], the EC50 was 5.19 µM in assay [1] and 4.87 µM in assay [2] (FaDu cell lines, determined at 72 h, read-out: EC50).

In the case of `O=c1c2ccccc2[se]n1-c1ccccc1` [Ebselen], the EC50 in assay [1] (Homo sapiens) was 3.89 µM; in assay [2] (Homo sapiens, FaDu, 72 h), 4.02 µM.

Consider `CC(=O)OC[C@H]1O[C@@H]([S-])[C@H](OC(C)=O)[C@@H](OC(C)=O)[C@@H]1OC(C)=O.CCP(CC)CC.[Au+]` [Auranofin], for which the concentration giving a half-maximal response (EC50) is 0.15 µM in assay [1] and 0.15 µM in assay [2] (FaDu cell lines, determined at 48 h, read-out: EC50). Also, the “effect on TrxR activity” value in assay [3] is “concentration dependent reduction”. Further, the “increase in ROS level as compared to untreated control” value in assay [4] is roughly 100%.

As for `CN1CC[C@@H](c2c(O)cc(O)c3c(=O)cc(-c4ccc(C(F)(F)F)cc4Cl)oc23)[C@@H]1CO.Cl` [Voruciclib, (+)-2-[2-Chloro-4-(trifluoromethyl)phenyl]-5,7-dihydroxy-8-[(2R,3S)-2-(hydroxymethyl)-1-methylpyrrolidin-3-yl]-4H-chromen-4-one hydrochloride], the EC50 in assay [1] (Homo sapiens) is 2.3 µM; in assay [2] (Homo sapiens, FaDu cell lines, determined at 48 h, read-out: EC50), 2.04 µM. The “effect on TrxR activity” value in assay [3] is on record as “no effect”. The “increase in ROS level as compared to untreated control” value in assay [4] is reported as roughly 80%.
